{
  "source": "paper PMC10046769",
  "about": "“An Impedimetric Biosensor for Detection of Volatile Organic Compounds in Food” (Biosensors, 2023)",
  "molecular_target": "T1, pig odorant-binding protein (pOBP) (Sus scrofa, UniProt P81245)",
  "T1 construct": "recombinant pOBP, GST tag removed by thrombin; monomer of 157 amino acids",
  "T1 sequence (P81245 1-157)": "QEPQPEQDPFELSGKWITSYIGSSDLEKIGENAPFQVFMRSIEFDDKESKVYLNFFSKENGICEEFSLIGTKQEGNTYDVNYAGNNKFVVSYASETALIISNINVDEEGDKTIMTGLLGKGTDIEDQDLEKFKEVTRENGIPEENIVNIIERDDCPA",
  "assay": "competitive FRET displacement of 1-AMA; also impedance (EIS) with immobilised pOBP",
  "data": [
    {"smiles": "C=CC(O)CCCCC", "note": "(stereo not shown) [1-octen-3-ol]", "values": [
      {"measurement": "Kd", "result": 18.5, "unit": "mM"}
    ]}
  ]
}
